Measured values published in the supplement of paper PMC10307832.

How the values were obtained:
Test in all cases: relative viability (nuclei count vs DMSO), 5 days (fraction); higher = more cells survive
AZD1208 + Luminespib = compound: N[C@@H]1CCCN(c2c(/C=C3\SC(=O)NC3=O)cccc2-c2ccccc2)C1 [AZD1208] + CCNC(=O)c1noc(-c2cc(C(C)C)c(O)cc2O)c1-c1ccc(CN2CCOCC2)cc1 [Luminespib] (partner 0.01 µM)
How it was run: (§1)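 Five library-drug doses in √10 steps were combined with a fixed anchor-drug dose, or a single drug was given alone, by pin tool to lung cancer cell lines in 1536-well plates the day after seeding. Nuclei were stained and counted after 5 days. Relative viability is the nuclei count in treated wells over that in vehicle wells, taken as the median of duplicate plates.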

AZD1208 + Alpelisib = compound: N[C@@H]1CCCN(c2c(/C=C3\SC(=O)NC3=O)cccc2-c2ccccc2)C1 [AZD1208] + Cc1nc(NC(=O)N2CCC[C@H]2C(N)=O)sc1-c1ccnc(C(C)(C)C(F)(F)F)c1 [Alpelisib] (partner 2 µM)
How it was run: as §1

XMD14-99 + Phenformin = compound: CN1CCN(CC1)C2=CC(=C(C=C2)NC3=NC(=C(S3)C(=O)C4=C(C=CC=C4Cl)Cl)N)OC [XMD14-99] + N=C(N)NC(=N)NCCc1ccccc1 [Phenformin] (partner 250 µM)
How it was run: as §1

XMD14-99 + Navitoclax = compound: CN1CCN(CC1)C2=CC(=C(C=C2)NC3=NC(=C(S3)C(=O)C4=C(C=CC=C4Cl)Cl)N)OC [XMD14-99] + CC1(C)CCC(c2ccc(Cl)cc2)=C(CN2CCN(c3ccc(C(=O)NS(=O)(=O)c4ccc(N[C@H](CCN5CCOCC5)CSc5ccccc5)c(S(=O)(=O)C(F)(F)F)c4)cc3)CC2)C1 [Navitoclax] (partner 0.5 µM)
How it was run: as §1

Cell Line | relative viability (AZD1208 + Luminespib; first compound 0.08 µM) | relative viability (AZD1208 + Luminespib; first compound 0.253 µM) | relative viability (AZD1208 + Luminespib; first compound 0.8 µM) | relative viability (AZD1208 + Luminespib; first compound 2.53 µM) | relative viability (AZD1208 + Luminespib; first compound 8 µM) | relative viability (AZD1208 + Alpelisib; first compound 0.08 µM) | relative viability (AZD1208 + Alpelisib; first compound 0.253 µM) | relative viability (AZD1208 + Alpelisib; first compound 0.8 µM) | relative viability (AZD1208 + Alpelisib; first compound 2.53 µM) | relative viability (AZD1208 + Alpelisib; first compound 8 µM) | relative viability (XMD14-99 + Phenformin; first compound 0.08 µM) | relative viability (XMD14-99 + Phenformin; first compound 0.8 µM) | relative viability (XMD14-99 + Phenformin; first compound 2.53 µM) | relative viability (XMD14-99 + Phenformin; first compound 8 µM) | relative viability (XMD14-99 + Navitoclax; first compound 0.08 µM) | relative viability (XMD14-99 + Navitoclax; first compound 0.8 µM) | relative viability (XMD14-99 + Navitoclax; first compound 2.53 µM) | relative viability (XMD14-99 + Navitoclax; first compound 8 µM)
HCC-827 | 0.735 | 0.677 | 0.307 | 0.373 | 0.408 | 0.969 | 1.04 | 0.915 | 0.859 | 0.893 | 0.406 | 0.37 | 0.377 | 0.308 | 1.06 | 0.99 | 0.793 | 0.873
HOP-62 | 0.918 | 1.07 | 0.904 | 0.916 | 0.956 | 1.04 | 0.919 | 0.82 | 0.764 | 0.896 | 0.707 | 0.648 | 0.643 | 0.547 | 1.12 | 1.16 | 1.03 | 0.951
IA-LM | – | – | – | – | – | 0.83 | 0.617 | 0.826 | 0.837 | 0.569 | – | – | – | – | 0.732 | 0.56 | 0.449 | 0.295
LC-2-ad | 0.943 | 0.984 | 0.968 | 0.962 | 1.02 | 0.816 | 0.592 | 0.787 | 0.894 | 0.794 | 0.611 | 0.554 | 0.58 | 0.505 | 0.533 | 0.386 | 0.273 | 0.295
LCLC-97TM1 | 0.829 | 0.754 | 0.604 | 0.632 | 0.727 | 0.267 | 0.212 | – | 0.169 | 0.199 | 0.431 | 0.414 | 0.466 | 0.355 | 0.43 | 0.455 | 0.268 | 0.382
LCLC-103H | 1.01 | 1.01 | 0.995 | 0.859 | 0.944 | 0.904 | 0.985 | 0.863 | 0.884 | 0.774 | 0.294 | 0.348 | 0.318 | 0.298 | – | – | – | –
LK-2 | 0.17 | 0.187 | 0.2 | 0.184 | 0.17 | 0.85 | 0.759 | 0.618 | 0.567 | 0.477 | 0.363 | 0.368 | 0.423 | 0.215 | 0.767 | 0.883 | 1.02 | 0.91
LOU-NH91 | 0.34 | 0.342 | 0.365 | 0.313 | 0.322 | 0.72 | 0.719 | 0.632 | 0.681 | 0.673 | 0.716 | 0.777 | 0.573 | 0.556 | 0.662 | 0.758 | 0.685 | 0.613
LU99A | 0.306 | 0.292 | 0.204 | 0.182 | 0.238 | 0.497 | 0.481 | 0.462 | 0.429 | 0.345 | 0.888 | 0.917 | 0.728 | 0.603 | 0.766 | 0.776 | 0.786 | 0.725
LXF-289 | 0.601 | 0.584 | 0.659 | 0.607 | 0.527 | 1.05 | 1.13 | 1.01 | 1.03 | 1.03 | 0.52 | 0.502 | 0.487 | 0.457 | 0.903 | 0.913 | 0.884 | 0.836
NCI-H23 | 0.238 | 0.218 | – | 0.202 | 0.24 | 0.658 | 0.58 | 0.493 | 0.564 | 0.561 | 0.767 | 0.85 | 0.741 | 0.659 | 0.782 | 0.874 | 0.744 | 0.748
NCI-H358 | 0.38 | 0.307 | 0.514 | 0.319 | 0.122 | 0.64 | 0.709 | 0.546 | 0.592 | 0.569 | 0.306 | 0.354 | 0.267 | 0.217 | – | – | – | –
NCI-H522 | 1.03 | 1.15 | 0.841 | 0.935 | 0.973 | – | – | – | – | – | 0.658 | 0.616 | 0.702 | 0.692 | – | – | – | –
NCI-H650 | 0.865 | 0.768 | 0.789 | 0.757 | 0.819 | 1.11 | 1.15 | 1.07 | 0.967 | 0.823 | 0.497 | 0.465 | 0.423 | 0.364 | – | – | – | –
NCI-H661 | 0.977 | 1.02 | 0.955 | 0.939 | 0.998 | 0.706 | 0.815 | 0.529 | 0.724 | 0.665 | 0.292 | 0.272 | 0.263 | 0.296 | – | – | – | –
NCI-H1299 | – | – | – | – | – | 1.08 | 1.08 | 1.07 | 1.03 | 1.13 | – | – | – | – | 1.08 | 1.03 | 0.994 | 0.825
NCI-H1563 | 0.556 | 0.532 | 0.561 | 0.478 | 0.504 | 0.898 | 0.826 | 0.954 | 0.951 | 0.834 | 0.606 | 0.63 | 0.6 | 0.585 | – | – | – | –
NCI-H1623 | 0.444 | 0.393 | 0.365 | 0.324 | 0.372 | – | – | – | – | – | 0.573 | 0.613 | 0.584 | 0.54 | – | – | – | –
NCI-H1650 | 0.208 | 0.151 | 0.188 | 0.211 | 0.204 | – | – | – | – | – | 0.375 | 0.498 | 0.361 | 0.312 | 1.15 | 1.44 | 0.992 | 1.04
NCI-H1703 | – | – | – | – | – | 0.338 | 0.302 | 0.301 | 0.31 | 0.287 | – | – | – | – | 1.06 | 1.11 | 0.933 | 0.719
NCI-H2342 | 0.686 | 0.713 | 0.653 | 0.672 | 0.533 | – | – | – | – | – | 0.675 | 0.782 | 0.68 | 0.513 | – | – | – | –
SW 900 | 0.191 | 0.172 | 0.167 | 0.185 | 0.162 | – | – | – | – | – | 0.6 | 0.685 | 0.555 | 0.402 | – | – | – | –
